Assay results taken from patent publication EP1672365A1, “Means and methods for determining and/or influencing cellular transportation” (priority 2004, dated 2006).
Entries after “also recorded” stand apart in the source; their conditions may differ.

What was measured:
[1] = biological target: T1, Bcrp1 (Mus musculus, UniProt Q7TMS5); assay: Milk secretion of radiolabelled compounds after intravenous administration to lactating wild-type and Bcrp1-/- mice; assay type: in vivo; parameters: Bcrp1 was detected primarily in the apical membrane of alveolar epithelial cells; from tissue; host or cells: mammary gland of lactating wild-type mice (Bcrp1-/- mice as control); conditions: for milk secretion in Bcrp1-/- compared to wild-type mice: lactating wild-type vs Bcrp1-/- mice; for milk-to-plasma (M/P) ratio: lactating Bcrp1-/- mice; for milk-to-plasma (M/P) ratio / milk secretion in wild-type mice: 1 mg kg-1 intravenously, 30 min; for milk secretion in wild-type mice: lactating wild-type mice
T1 sequence (Q7TMS5 1-657): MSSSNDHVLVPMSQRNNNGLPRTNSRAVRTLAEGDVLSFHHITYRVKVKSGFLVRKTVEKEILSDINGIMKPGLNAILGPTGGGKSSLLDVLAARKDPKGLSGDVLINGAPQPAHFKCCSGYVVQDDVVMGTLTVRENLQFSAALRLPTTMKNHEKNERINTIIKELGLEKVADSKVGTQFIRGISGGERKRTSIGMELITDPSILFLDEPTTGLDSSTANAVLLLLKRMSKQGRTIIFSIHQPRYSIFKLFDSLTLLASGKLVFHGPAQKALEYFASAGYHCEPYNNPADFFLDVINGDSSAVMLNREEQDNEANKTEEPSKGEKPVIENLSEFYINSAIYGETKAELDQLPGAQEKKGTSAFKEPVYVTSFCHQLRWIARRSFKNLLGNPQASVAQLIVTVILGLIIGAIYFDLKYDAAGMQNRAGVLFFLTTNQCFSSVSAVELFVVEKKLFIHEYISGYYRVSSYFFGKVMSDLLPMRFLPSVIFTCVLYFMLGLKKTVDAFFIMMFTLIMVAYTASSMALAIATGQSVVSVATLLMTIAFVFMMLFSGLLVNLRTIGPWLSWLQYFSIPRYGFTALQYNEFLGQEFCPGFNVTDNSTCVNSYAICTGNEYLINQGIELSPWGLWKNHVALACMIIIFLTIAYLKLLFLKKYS
Experimental: (§1) For intravenous drug administration, 5 µl drug solution per g body weight was injected into the tail vein of mice lightly anesthetised with methoxyflurane. Levels of radioactivity in plasma and milk were determined by liquid scintillation counting. Measurements of drug secretion into the milk were done in lactating dams with pups of approximately 10 days old. To stimulate milk secretion, oxytocin (200 µl of an 1 I.U. ml^-1 solution) was administered subcutaneously to lactating dams at 30 min before milk was collected. After intravenous administration of a drug, at the indicated time approximately 50 µl milk was collected from the 4th and 5th mammary glands by gentle vacuum suction. Immediately after milk collection, a small blood sample was collected from the tail.

[2] = tested on: Bcrp1; assay: Inhibition of Bcrp1-mediated milk secretion of topotecan by GF120918; assay type: in vivo; conditions: GF120918 250 mg/kg orally 2 hours before [14C]-topotecan 1 mg/kg i.v., lactating mice
Experimental: GF120918 was suspended at […] in water for injection and concentrated stock vehicle (1:1). The concentrated stock vehicle consisted of hydroxypropyl methyl cellulose (10 g/l) and 2% Tween 80 in water for injection. Animals were administered GF120918 (250 mg/kg; 10 µl of drug solution/g body weight) by gavage into the stomach at 2 hours before [^14C]-topotecan injection. [^14C]-topotecan (1 mg/kg) was injected into the vein of mice lightly anesthetized with methoxyflurane. To stimulate milk secretion, oxytocin (200 µl of 1 I.U./ml solution) was administered subcutaneously to lactating dams at 15 min before each milk sample was collected. At indicated time points (15, 30, 60 and 120 min after [^14C]-topotecan injection), 50 µl of milk was collected from the mammary glands by gentle vacuum suction. […] At the last sampling point, animals were sacrificed by cardiac puncture after anesthesia with methoxyflurane.

[3] = biological target: T1, Bcrp1; conditions: in vivo
Experimental: as §1
Samples were protected from light during the whole sample pre-treatment. Methanol (4 times the sample volume) was added to plasma and milk samples to precipitate proteins. […] The flow was 1.0 ml min^-1 and the detection was performed fluorimetrically using a FP920 Intelligent Fluorescence Detector (Jasco International Co. Ltd., Tokyo, Japan) with excitation/emission wavelengths set at 372/520 nm and 40 nm bandwidth. The capacity of the flow-cell of the fluorescence detector was 16 µl. […] Calibration curves were calculated by least-squares linear regression using a weighting factor of the reciprocal of the concentration.

[4] = biological target: T2, human BCRP (Homo sapiens, UniProt Q9UNQ0); assay: Vesicular transport assay (inside-out vesicle uptake, Sf9 membrane vesicles); assay type: biochemical; conditions: 3H-riboflavin 0.25 µM, vesicles from Sf9 cells with BCRP-expressing or wild-type baculovirus, 4 mM ATP
T2 construct: made in house; host or cells: Sf9 insect cells infected with BCRP-expressing baculovirus (membrane vesicles)
T2 sequence (Q9UNQ0 1-655): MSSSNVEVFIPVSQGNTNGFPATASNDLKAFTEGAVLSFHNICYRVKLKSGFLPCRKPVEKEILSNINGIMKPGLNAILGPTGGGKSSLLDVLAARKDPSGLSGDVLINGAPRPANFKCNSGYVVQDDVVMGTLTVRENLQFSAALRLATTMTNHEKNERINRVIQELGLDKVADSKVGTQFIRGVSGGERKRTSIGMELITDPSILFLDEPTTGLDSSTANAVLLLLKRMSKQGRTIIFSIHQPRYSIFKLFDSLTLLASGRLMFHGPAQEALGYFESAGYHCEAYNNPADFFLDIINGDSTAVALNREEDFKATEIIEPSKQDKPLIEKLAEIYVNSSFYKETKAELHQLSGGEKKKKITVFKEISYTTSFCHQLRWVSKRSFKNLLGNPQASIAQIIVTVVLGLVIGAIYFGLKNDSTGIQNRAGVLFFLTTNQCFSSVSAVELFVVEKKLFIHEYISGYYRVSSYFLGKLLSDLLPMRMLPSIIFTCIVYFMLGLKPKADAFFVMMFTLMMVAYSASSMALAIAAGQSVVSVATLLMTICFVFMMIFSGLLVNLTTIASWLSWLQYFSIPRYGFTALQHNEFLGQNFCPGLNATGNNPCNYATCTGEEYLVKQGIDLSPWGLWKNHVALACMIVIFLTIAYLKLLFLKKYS
Experimental: Vesicular transport assays were performed as described (Ozvegy, C., et al. Functional characterization of the human multidrug transporter, ABCG2, expressed in insect cells. Biochem. Biophys. Res. Commun. 285, 111-117 (2001); Zelcer, N., et al. Evidence for two interacting ligand-binding sites in human MRP2 (ABCC2). J. Biol. Chem. 278, 23538-23544 (2003)), using vesicles from Sf9 cells infected with BCRP-expressing or wild-type baculovirus, in the presence or absence of 4 mM ATP. ATP-dependent transport was calculated by subtracting the uptake in absence of ATP from that in the presence of ATP.

C[C@]12CC[C@H](OS(=O)(=O)O)CC1=CC[C@@H]1[C@@H]2CC[C@]2(C)C(=O)CC[C@@H]12 [DHEAS, dehydroepiandrosterone-sulfate]
milk secretion in Bcrp1-/- compared to wild-type mice [1]: not affected

COc1cc2c(cc1OC)CN(CCc1ccc(NC(=O)c3cccc4c(=O)c5cccc(OC)c5[nH]c34)cc1)CC2 [GF120918, N-{4-[2-(1,2,3,4-tetrahydro-6,7-dimethoxy-2-isoquinolinyl)-ethyl]-phenyl}-9,10-dihydro-5-methoxy-9-oxo-4-acridine carboxamide]
effect on active secretion of topotecan into the milk by Bcrp1 [2]: effectively reversed; also recorded: capable of at least in part inhibiting transport of topotecan into the milk

Cn1c(N)nc2ncc(-c3ccccc3)cc21 [PhIP, 2-amino-1-methyl-6-phenylimidazo[4,5-b]pyridine]
milk-to-plasma (M/P) ratio [1]: <= 1
milk secretion in wild-type mice [1]: highly concentrated into the milk

Nc1nc2ncc(CNc3ccc(C(=O)N[C@@H](CCC(=O)O)C(=O)O)cc3)nc2c(=O)[nH]1 [folic acid]
milk secretion in Bcrp1-/- compared to wild-type mice [1]: not affected

Cc1cc2nc3c(=O)[nH]c(=O)nc-3n(C[C@H](O)[C@H](O)[C@H](O)CO)c2cc1C [riboflavin]
decrease in the endogenous milk secretion [3]: 67 fold
ATP-dependent transport by human BCRP [4]: confirmed ATP-dependent transport

CC[C@@]1(O)C(=O)OCc2c1cc1n(c2=O)Cc2cc3c(CN(C)C)c(O)ccc3nc2-1 [topotecan]
milk-to-plasma (M/P) ratio [1]: <= 1
milk secretion in wild-type mice [1]: highly concentrated into the milk

vitamin B12
milk secretion in Bcrp1-/- compared to wild-type mice [1]: not affected
